{"source": "patent US20060282906A1", "about": "“Non-transgenic rodent model of Alzheimer's disease” (priority 2005, published 2006)", "test_system": "Male Wistar rats", "experiment": "Immunohistochemistry of rat brain sections, grading scale of staining size and intensity", "format": "in vivo", "set-up": "key to NKκB(p65) immunostaining signal / COX-2 immunostaining signal / GFAP immunostaining signal / OX-6 immunostaining signal / APP immunostaining signal / Tau-2 immunostaining signal / TNFα immunostaining signal / Cas-3 immunostaining signal: n.s.: no positive staining; +: moderate immunostaining signal; ++: strong immunostaining signal; +++: strongest immunostaining signal", "note": "Where no end group is shown, it is not given here."}
{"sequence": "GSNKGAIIGLM [Aβ, β-amyloid fragment (25-35), 50 nmol injected bilaterally into the lateral ventricles of rats]", "values": [{"measurement": "APP immunostaining signal", "setting": "Corpus Callosum", "result": "+"}, {"measurement": "COX-2 immunostaining signal", "setting": "Corpus Callosum", "result": "+"}, {"measurement": "GFAP immunostaining signal", "setting": "Corpus Callosum", "result": "+"}, {"measurement": "NKκB(p65) immunostaining signal", "setting": "Corpus Callosum", "result": "+"}, {"measurement": "OX-6 immunostaining signal", "setting": "Corpus Callosum", "result": "+"}, {"measurement": "TNFα immunostaining signal", "setting": "Corpus Callosum", "result": "+"}, {"measurement": "Tau-2 immunostaining signal", "setting": "Corpus Callosum", "result": "+"}, {"measurement": "APP immunostaining signal", "setting": "Cortex", "result": "+"}, {"measurement": "COX-2 immunostaining signal", "setting": "Cortex", "result": "+"}, {"measurement": "GFAP immunostaining signal", "setting": "Cortex", "result": "+"}, {"measurement": "NKκB(p65) immunostaining signal", "setting": "Cortex", "result": "+"}, {"measurement": "OX-6 immunostaining signal", "setting": "Cortex", "result": "+"}, {"measurement": "TNFα immunostaining signal", "setting": "Cortex", "result": "+"}, {"measurement": "Tau-2 immunostaining signal", "setting": "Cortex", "result": "+"}, {"measurement": "APP immunostaining signal", "setting": "Hippocampus", "result": "+"}, {"measurement": "COX-2 immunostaining signal", "setting": "Hippocampus", "result": "+"}, {"measurement": "GFAP immunostaining signal", "setting": "Hippocampus", "result": "+"}, {"measurement": "NKκB(p65) immunostaining signal", "setting": "Hippocampus", "result": "+"}, {"measurement": "OX-6 immunostaining signal", "setting": "Hippocampus", "result": "+"}, {"measurement": "Tau-2 immunostaining signal", "setting": "Hippocampus", "result": "+"}, {"measurement": "APP immunostaining signal", "setting": "Hypothalamus", "result": "+"}, {"measurement": "NKκB(p65) immunostaining signal", "setting": "Hypothalamus", "result": "+"}, {"measurement": "TNFα immunostaining signal", "setting": "Hypothalamus", "result": "+"}, {"measurement": "APP immunostaining signal", "setting": "Striatum (right)", "result": "n.s."}, {"measurement": "COX-2 immunostaining signal", "setting": "Striatum (right)", "result": "n.s."}, {"measurement": "Cas-3 immunostaining signal", "setting": "Striatum (right)", "result": "n.s."}, {"measurement": "GFAP immunostaining signal", "setting": "Striatum (right)", "result": "+"}, {"measurement": "NKκB(p65) immunostaining signal", "setting": "Striatum (right)", "result": "n.s."}, {"measurement": "OX-6 immunostaining signal", "setting": "Striatum (right)", "result": "n.s."}, {"measurement": "TNFα immunostaining signal", "setting": "Striatum (right)", "result": "n.s."}, {"measurement": "OX-6 immunostaining signal", "setting": "Thalamus (right)", "result": "+"}, {"measurement": "TNFα immunostaining signal", "setting": "Thalamus (right)", "result": "+"}]}
